What all share (assay): broth microdilution MIC/MBC
Holding throughout (assay type): cell-based
For orientation: In broth dilution the organism is exposed to a series of concentrations in liquid medium.

Assay [1] deals with MRSA clinical isolate 1801 blaZ(−). As to conditions: Staphylococcus aureus, ABPC.
Another assay has as its system MRSA JCM8703. To be noted: Staphylococcus aureus, ABPC.
Assay [2] relates to MRSA clinical isolate 2022 blaZ(−). As to conditions: Staphylococcus aureus, ABPC.
A further assay concerns MRSA N315. As to conditions: Staphylococcus aureus, ABPC.
For assay [3], the system named is MRSA clinical isolate 2526 blaZ(+). To be noted: Staphylococcus aureus, ABPC.
The subject of a further assay is VSE5804. As to conditions: Enterococcus, ABPC. As to the method:
Ampicillin (ABPC) was used as a positive control. The measurement was carried out in accordance with a broth microdilution method (NCCLS). […] These serial dilutions were placed in a 96-well plate, and a bacterial strain was added to each well at an amount of 10^5 CFU/ml, followed by incubation at 35° C. for 18 hours. In the case where turbidity was visually observed, it was judged that the bacterial strain grew. The lowest concentration at which the bacterial growth was not observed was defined as MIC. A solution was collected from the well in which bacterial growth was not observed, added to an antibiotic-free medium, and then incubated at 35° C. for 18 hours, followed by visually observing existence of turbidity. The lowest concentration at which turbidity was not observed was defined as MBC. Values in the tables are: ABPC, μg/ml; polymer particles, mg/ml. Numbers in the parentheses indicate the dilution factor.

Another assay relates to VRE GTC02000. As to conditions: Enterococcus, ABPC.
Another assay deals with MSSA ATCC6538. To be noted: Staphylococcus aureus, ABPC.
In assay [4] the test system is MRSA clinical isolate 2005 blaZ(+). As to conditions: Staphylococcus aureus, ABPC.
Another assay concerns MSSA JCM2874. As to conditions: Staphylococcus aureus, ABPC.

Values after ≈ are worked out from the molar mass of the structure shown.

As usually defined, the MBC is the lowest tested concentration that kills the bacteria rather than only halting them. Low readings indicate more potent killing, high ones less potent killing. The term MIC denotes the lowest concentration that inhibits growth of the organism. As for `CC1(C)S[C@@H]2[C@H](NC(=O)[C@H](N)c3ccccc3)C(=O)N2[C@H]1C(=O)O` [ABPC, Ampicillin], the MBC was 16 µg/mL (≈ 45.8 µM) in assay [1]; 64 µg/mL (≈ 183 µM) against MRSA JCM8703; 16 µg/mL (≈ 45.8 µM) in assay [2]; 32 µg/mL (≈ 91.6 µM) in the assay on MRSA N315; 64 µg/mL (≈ 183 µM) in assay [3]; 0.5 µg/mL (≈ 1.43 µM) in the assay on VSE5804. The MBC with VRE GTC02000 was determined as 1 µg/mL (≈ 2.86 µM); in the assay with MSSA ATCC6538 it was 0.063 µg/mL (≈ 0.18 µM); in assay [4], 64 µg/mL (≈ 183 µM); with MSSA JCM2874, 2 µg/mL (≈ 5.72 µM). For the same compound, the MIC was found to be 16 µg/mL (≈ 45.8 µM) in assay [1]; 64 µg/mL (≈ 183 µM) in the assay with MRSA JCM8703; 16 µg/mL (≈ 45.8 µM) in [2]; 64 µg/mL (≈ 183 µM) in assay [3]; 0.5 µg/mL (≈ 1.43 µM) against VSE5804; 1 µg/mL (≈ 2.86 µM) against VRE GTC02000. Moreover, the MIC in the assay on MSSA ATCC6538 was 0.063 µg/mL (≈ 0.18 µM); in [4] it was 64 µg/mL (≈ 183 µM); with MSSA JCM2874, 2 µg/mL (≈ 5.72 µM).

Values taken from patent US20100285140A1, “ANTIMICROBIAL AGENT FOR GRAM-POSITIVE BACTERIA” (priority 2007, published 2010).
